{"source": "patent US20240207454A1", "about": "“NEURO-BEHAVIORAL ASSAY FOR PHYSIOLOGICAL EVALUATION OF WATER-SOLUBLE ANESTHETICS” (Northeastern University, priority 2022, published 2024)", "key": {"[1]": {"test_system": "Apteronotus leptorhynchus", "assay": "Neuro-behavioral assay: chirps (EOD modulations)", "type": "in vivo", "details": "for Number of chirps during the 30 min immediately following anesthesia (mean) / Number of chirps during the 30 min immediately following anesthesia (median) / Number of chirps during the 30 min immediately following anesthesia (range among fish): 2.5% urethane or 0.02% MS-222, n=8 fish", "from_the_text": "Previous research has shown that transient modulations of the EOD may occur, both spontaneously and through stimulation with electric signal mimicking the EOD of a conspecific. These modulations are brief (several tens of milliseconds) and involve frequency increases. They are commonly referred to as ‘chirps.’\nTo identify chirp instances, the time-frequency data {(Tk, fk)}k=q^q+n^wind, q=1, . . . , M−nwind−1, was considered in a moving time window containing nwind+1 samples. The first and last nmed samples in each window are used to establish the instantaneous base frequency before chirping:\nto the data set {(ξp,q, ϕp,q)}p=0^n^wind for each q=1, 2, . . . time window. This curve fitting was carried out over a fixed search range α∈[αmin, αmax] discretized evenly using nα+1 number points. For each q=1, 2, . . . time window, the coefficient of determination Rq,i^2 was computed for each point αi=αmin+i (αmax−αmin)/nα, i=0, . . . , nα of the discretized search range. Then, the fitted curve for each q=1, 2, . . . time window as Φ (ξ; ? ), with\nSubsequently, using Algorithm 1, contiguous segments of successive windows are identified within qε and for each segment the time window q associated with the maximum ? value is reported together with the corresponding parameter ? and maximum frequency rise Δfq.\nNonlinear regression is performed on data points within these time windows using the three-parameter model Ψ(ξ; α, Δf, τ)=Δf Φ(ξ−τ; α) with initial parameters α= ? , Δf=Δfq, and τ=0. Finally,\nas time instance, ? as maximum frequency rise and dchirp,q=ln(7+4√{square root over (3)})/αq is reported as duration of a chirp for each q reported time window with parameter estimates αq, ? , τq. Here the formula for chirp duration corresponds to the half prominence of Ψ(ξ; αq, ? , τq).\n(§1) The experimental design is outlined in FIG. 2. To determine the baseline EOD frequency, the fish's EOD was recorded for 30 min. Then, the fish was transferred into a glass beaker containing either 2.5% urethane (Acros Organics, New Jersey, USA) or 0.02% MS-222 (Western Chemical, Washington, USA), each dissolved in water from the fish's isolation tank. As a control, the fish was moved into an identical glass beaker containing aquarium water only. The temperatures of the anesthetic solutions or the aquarium water in the beaker were similar (±1° C.) to the temperature of the water in the fish's isolation tank.\n(§2) The fish was left in the anesthetic solution until both anal fin undulation and opercular movement ceased. It was then returned to its isolation tank where recording of the EOD continued for 180 min. For urethane anesthesia, treatment including transfer to and from the beaker took between 4-5 min. MS-222 anesthesia required longer exposure to the anesthetic so that the entire treatment lasted between 9-15 min. Control experiments were designed such that the handling of the fish and the time the fish spent outside its isolation tank were similar to the corresponding anesthesia experiments (urethane control: 5-8 min; MS-222 control: 7-10 min).\nThe method described in Eske et al. (2023) was employed for the detection of chirps. This method assumes that the frequency shape of chirps normalized by the peak frequency rise is described in time by function\nwhere ξ is the time coordinate measured from the chirp's peak frequency and α is an unknown parameter identified by the chirp detection method (FIG. 2). This function closely matches the shape of type-2 chirps, and, though to a lesser extent, the shape of type-1 chirps. […]"}, "[2]": {"test_system": "Apteronotus leptorhynchus", "assay": "Neuro-behavioral assay: locomotor activity and induction of anesthesia", "type": "in vivo", "details": "for Treatment time until anal fin undulation and opercular movement ceased, including transfer to and from the beaker: 2.5% urethane or 0.02% MS-222 immersion", "experimental": "FIG. 30 Locomotor activity inferred from amplitude fluctuations of the EOD. After recording of the baseline EOD for 6 min, the fish was transferred to a 0.02% MS-222 solution in aquarium water for 5 min. After return of the fish to its home tank, the EOD recording continued for 15 min. To determine the locomotor activity index, positive and negative deviations from an arbitrarily set threshold value of the amplitude were determined every 1 sec, and the standard deviation of the absolute values of these amplitude deviations were calculated for 30-sec time windows. […] Recovery of the locomotor activity occurred within some 2 min after the fish was returned to its home tank (filled circles).\nas §1, §2\nTo examine the effect of eugenol on EOD frequency and chirping behavior, the following experiments were conducted using 8 fish (FIG. 11): First, the baseline EOD was recorded in the fish's home tank (50 cm×30 cm×30 cm) for 30 min. Then, for the 5-min treatment session, the shelter tube with the fish was transferred to a smaller (experimental) tank (30 cm×20 cm×20 cm) containing either eugenol dissolved in aquarium water at a certain concentration (30 μL/L, 45 μL/L, or 60 μL/L; ‘test condition’) or aquarium water only (‘control condition’). The temperature in the experimental tank was similar to the temperature in the home tank (median difference: ±0.2° C.). Finally, the shelter tube with the fish was returned to the home tank, where recording continued for 180 min. Throughout the 215 min of pre-treatment, treatment, and post-treatment, the recording of the EOD was interrupted only for a few seconds during which the fish was transferred between its home tank and the experimental tank. The order of the four treatment conditions was determined using a randomized complete block design. Each test or control experiment in a given fish was conducted on a different day.\nMost of the time, fish in the shelter tube maintained an upright position, with their longitudinal axis parallel to the walls of the tube. Forward and backward swimming occurred frequently and appeared to be mediated primarily by high-frequency undulations of the anal fin. Sporadically, the fish made 180° turns around its vertical axis.\nNeuro-Behavioral Assay extended to the monitoring of locomotor activity. The electric organ discharge (EOD) that is recorded as the assayed behavior contains not only information about the frequency and possible modulations of the EOD (‘chirps’) but also about the locomotor activity of the fish. […]"}, "[3]": {"details": "PubChem; cited from earlier work"}, "zebrafish (Danio rerio)": {"test_system": "zebrafish (Danio rerio)", "details": "60 μL/L eugenol, D. rerio; cited from earlier work"}, "Nav 1.7": {"molecular_target": "T1, Nav 1.7 (Homo sapiens, UniProt Q15858)", "T1 construct": "host or cells: CHO cells (transfected)", "T1 sequence (Q15858 whole entry)": "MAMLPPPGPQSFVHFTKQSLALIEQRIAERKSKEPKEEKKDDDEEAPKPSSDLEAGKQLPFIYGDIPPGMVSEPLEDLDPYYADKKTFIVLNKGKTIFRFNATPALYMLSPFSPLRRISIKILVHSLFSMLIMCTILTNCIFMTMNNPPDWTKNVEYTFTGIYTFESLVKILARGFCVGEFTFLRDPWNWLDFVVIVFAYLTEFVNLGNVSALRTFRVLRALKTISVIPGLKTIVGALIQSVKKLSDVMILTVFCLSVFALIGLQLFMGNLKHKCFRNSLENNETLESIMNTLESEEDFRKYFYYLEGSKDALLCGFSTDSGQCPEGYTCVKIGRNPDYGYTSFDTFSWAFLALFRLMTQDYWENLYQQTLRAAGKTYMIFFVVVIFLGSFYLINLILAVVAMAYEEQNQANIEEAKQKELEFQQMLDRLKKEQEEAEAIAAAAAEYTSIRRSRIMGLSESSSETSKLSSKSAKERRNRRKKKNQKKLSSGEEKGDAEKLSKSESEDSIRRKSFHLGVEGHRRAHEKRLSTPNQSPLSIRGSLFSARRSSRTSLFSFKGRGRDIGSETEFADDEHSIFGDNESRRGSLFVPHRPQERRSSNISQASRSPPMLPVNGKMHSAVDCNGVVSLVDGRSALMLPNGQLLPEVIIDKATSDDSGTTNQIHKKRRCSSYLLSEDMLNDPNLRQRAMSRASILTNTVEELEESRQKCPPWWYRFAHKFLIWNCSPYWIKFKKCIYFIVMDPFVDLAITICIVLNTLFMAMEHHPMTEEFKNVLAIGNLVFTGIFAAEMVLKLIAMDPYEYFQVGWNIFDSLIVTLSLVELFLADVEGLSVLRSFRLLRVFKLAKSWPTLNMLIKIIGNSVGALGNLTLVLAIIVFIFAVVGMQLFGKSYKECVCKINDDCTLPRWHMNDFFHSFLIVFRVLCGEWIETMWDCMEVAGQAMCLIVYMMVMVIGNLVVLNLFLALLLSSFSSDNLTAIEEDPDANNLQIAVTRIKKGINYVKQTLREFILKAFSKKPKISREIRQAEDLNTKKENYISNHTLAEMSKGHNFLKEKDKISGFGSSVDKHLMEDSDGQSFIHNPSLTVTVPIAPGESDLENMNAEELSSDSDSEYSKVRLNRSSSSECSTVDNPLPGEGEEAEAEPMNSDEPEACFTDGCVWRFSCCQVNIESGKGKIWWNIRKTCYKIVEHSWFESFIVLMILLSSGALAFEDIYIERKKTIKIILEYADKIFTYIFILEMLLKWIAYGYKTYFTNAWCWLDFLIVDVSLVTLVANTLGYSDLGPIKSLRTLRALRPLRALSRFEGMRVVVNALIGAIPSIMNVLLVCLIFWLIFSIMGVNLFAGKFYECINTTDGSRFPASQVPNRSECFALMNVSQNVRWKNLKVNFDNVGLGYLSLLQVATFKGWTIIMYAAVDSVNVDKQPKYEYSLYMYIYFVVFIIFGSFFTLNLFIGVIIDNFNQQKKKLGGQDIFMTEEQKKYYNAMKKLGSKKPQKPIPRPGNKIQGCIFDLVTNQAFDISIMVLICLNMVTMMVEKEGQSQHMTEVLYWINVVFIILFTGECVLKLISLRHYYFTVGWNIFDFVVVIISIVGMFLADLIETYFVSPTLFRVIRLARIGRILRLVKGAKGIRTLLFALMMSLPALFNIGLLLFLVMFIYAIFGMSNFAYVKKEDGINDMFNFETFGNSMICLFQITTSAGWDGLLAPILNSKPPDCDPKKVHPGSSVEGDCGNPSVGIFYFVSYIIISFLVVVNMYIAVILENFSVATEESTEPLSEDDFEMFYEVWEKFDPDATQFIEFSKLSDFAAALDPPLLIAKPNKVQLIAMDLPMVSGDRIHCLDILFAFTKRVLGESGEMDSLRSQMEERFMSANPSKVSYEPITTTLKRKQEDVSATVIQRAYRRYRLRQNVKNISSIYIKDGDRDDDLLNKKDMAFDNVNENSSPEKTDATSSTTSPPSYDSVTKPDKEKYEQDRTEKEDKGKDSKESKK", "details": "Nav 1.7-transfected CHO cells; cited from earlier work"}, "GABAA receptors": {"test_system": "GABAA receptors", "details": "receptors expressed in Xenopus oocytes; cited from earlier work"}, "[4]": {"molecular_target": "T2, GABAA receptor subtype α1β2γ2 (Homo sapiens, UniProt P14867+P18507+P47870)", "T2 construct": "host or cells: human embryonic kidney 293 cells (heterologous expression)", "T2 sequence (P14867 28-456)": "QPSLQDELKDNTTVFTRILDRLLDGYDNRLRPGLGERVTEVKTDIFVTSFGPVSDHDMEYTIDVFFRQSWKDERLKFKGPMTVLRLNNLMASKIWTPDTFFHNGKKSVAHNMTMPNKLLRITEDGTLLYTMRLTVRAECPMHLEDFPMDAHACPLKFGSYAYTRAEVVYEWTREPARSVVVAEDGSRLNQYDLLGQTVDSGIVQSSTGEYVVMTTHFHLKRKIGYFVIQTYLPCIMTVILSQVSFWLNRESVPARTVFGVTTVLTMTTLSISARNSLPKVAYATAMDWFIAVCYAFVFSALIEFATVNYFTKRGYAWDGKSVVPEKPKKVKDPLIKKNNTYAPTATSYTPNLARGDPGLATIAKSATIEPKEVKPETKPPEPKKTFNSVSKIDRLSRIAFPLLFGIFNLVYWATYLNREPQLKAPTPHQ", "T2 sequence (P47870 25-512 limits assumed)": "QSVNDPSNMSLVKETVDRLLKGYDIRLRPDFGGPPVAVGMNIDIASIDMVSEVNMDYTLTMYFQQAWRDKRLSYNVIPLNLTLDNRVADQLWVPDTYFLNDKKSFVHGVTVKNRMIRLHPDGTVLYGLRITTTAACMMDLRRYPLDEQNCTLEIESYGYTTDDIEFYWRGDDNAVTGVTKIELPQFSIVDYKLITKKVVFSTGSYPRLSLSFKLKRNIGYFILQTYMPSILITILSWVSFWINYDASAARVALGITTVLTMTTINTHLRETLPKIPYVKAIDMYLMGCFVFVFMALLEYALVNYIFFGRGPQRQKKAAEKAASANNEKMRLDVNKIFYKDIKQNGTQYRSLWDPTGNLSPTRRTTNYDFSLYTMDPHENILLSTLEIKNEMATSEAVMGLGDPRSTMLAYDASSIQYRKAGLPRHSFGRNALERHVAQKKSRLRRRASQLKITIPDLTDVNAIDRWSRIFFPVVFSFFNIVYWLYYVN", "T2 sequence (P18507 40-475)": "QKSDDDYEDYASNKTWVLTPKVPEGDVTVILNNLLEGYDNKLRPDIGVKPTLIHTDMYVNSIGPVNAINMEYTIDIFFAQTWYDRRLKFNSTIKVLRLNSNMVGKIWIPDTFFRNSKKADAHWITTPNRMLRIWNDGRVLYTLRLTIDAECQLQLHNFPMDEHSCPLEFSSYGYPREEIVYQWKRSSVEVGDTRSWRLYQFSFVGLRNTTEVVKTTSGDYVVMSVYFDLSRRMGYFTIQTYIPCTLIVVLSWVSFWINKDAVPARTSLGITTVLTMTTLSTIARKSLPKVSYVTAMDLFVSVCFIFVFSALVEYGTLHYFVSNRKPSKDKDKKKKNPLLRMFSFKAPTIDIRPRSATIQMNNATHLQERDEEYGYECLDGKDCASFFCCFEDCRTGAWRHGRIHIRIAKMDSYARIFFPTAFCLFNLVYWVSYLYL", "details": "human embryonic kidney 293 cells expressing α1β2γ2; cited from earlier work"}, "[5]": {"test_system": "epileptiform field potentials and spreading depression", "details": "rat neocortical and hippocampal slices; cited from earlier work"}, "[6]": {"details": "0.02% MS-222, 5 min exposure (FIG. 30)"}}, "note": "Several values for one entry are separate records, joined by “and”; a condition that tells them apart may be missing. Equal values may be shown once."}
{"smiles": "CCOC(=O)c1cccc(N)c1", "note": "[MS-222, 3-aminobenzoic acid ethyl ester methanesulfonate]", "values": [{"measurement": "Time chirp rates remained elevated after anesthesia", "setting": "[1]; 0.02% MS-222", "value": "≤ 3", "unit": "h"}, {"measurement": "Number of chirps during the 30 min immediately following anesthesia (mean)", "setting": "[1]", "value": 48, "unit": "chirps"}, {"measurement": "Number of chirps during the 30 min immediately following anesthesia (median)", "setting": "[1]", "value": 30, "unit": "chirps"}, {"measurement": "Number of chirps during the 30 min immediately following anesthesia (range among fish)", "setting": "[1]", "value": "1-156 chirps"}, {"measurement": "Time from start of exposure until locomotor activity drops dramatically", "setting": "[2]; [6]", "value": "≤ 2", "unit": "min"}, {"measurement": "Time to recovery of locomotor activity after return to home tank", "setting": "[2]; [6]", "value": "≤ 2", "unit": "min"}, {"measurement": "Treatment time until anal fin undulation and opercular movement ceased, including transfer to and from the beaker", "setting": "[2]", "value": "9 to 15", "unit": "min"}]}
{"smiles": "CCOC(N)=O", "note": "[urethane]", "values": [{"measurement": "Number of chirps during the 30 min immediately following anesthesia (mean)", "setting": "[1]", "value": "1852 chirps and 1500 chirps"}, {"measurement": "Number of chirps during the 30 min immediately following anesthesia (median)", "setting": "[1]", "value": 1541, "unit": "chirps"}, {"measurement": "Number of chirps during the 30 min immediately following anesthesia (range among fish)", "setting": "[1]", "value": "568-4434 chirps"}, {"measurement": "Time T to which type-2 chirping at higher rates persists after exposure", "setting": "[1]; 2.5% urethane, single recording (FIG. 20)", "value": "~4600", "unit": "s"}, {"measurement": "Treatment time until anal fin undulation and opercular movement ceased, including transfer to and from the beaker", "setting": "[2]", "value": "4 to 5", "unit": "min"}, {"measurement": "octanol-water partition coefficient log kow", "setting": "[3]", "value": "−0.15"}]}
{"smiles": "C=CCc1ccc(O)c(OC)c1", "note": "[eugenol]", "values": [{"measurement": "Difference in increase in the number of chirps (30 min before vs 30 min after exposure): Median", "setting": "[1]; eugenol 30 μL/L vs. Control", "value": 97.5}, {"measurement": "Difference in increase in the number of chirps between pairs of eugenol concentrations: Median", "setting": "[1]; eugenol 45 μL/L vs. 30 μL/L", "value": 8}, {"measurement": "Difference in increase in the number of chirps (30 min before vs 30 min after exposure): Median", "setting": "[1]; eugenol 45 μL/L vs. Control", "value": 137}, {"measurement": "Difference in increase in the number of chirps between pairs of eugenol concentrations: Median", "setting": "[1]; eugenol 60 μL/L vs. 30 μL/L", "value": 60.5}, {"measurement": "Difference in increase in the number of chirps between pairs of eugenol concentrations: Median", "setting": "[1]; eugenol 60 μL/L vs. 45 μL/L", "value": 23}, {"measurement": "Difference in increase in the number of chirps (30 min before vs 30 min after exposure): Median", "setting": "[1]; eugenol 60 μL/L vs. Control", "value": 160}, {"measurement": "Fish in which anal fin continued undulating throughout the 5-min exposure", "setting": "[2]; 30 μL/L eugenol", "value": "3 out of 8"}, {"measurement": "Time after which body movements ceased (mean)", "setting": "[2]; 30 μL/L eugenol, 8 fish", "value": 1.8, "unit": "min"}, {"measurement": "Time after which body movements ceased (range)", "setting": "[2]; 30 μL/L eugenol, 8 fish", "value": "1 to 3", "unit": "min"}, {"measurement": "Time after which anal fin undulation stopped", "setting": "[2]; 30 μL/L eugenol, the 5 fish in which it stopped", "value": "1 to 3", "unit": "min"}, {"measurement": "Time to anesthesia (total loss of equilibrium and cessation of any movement, including anal fin undulation)", "setting": "[2]; 45 μL/L and 60 μl/L eugenol", "value": "1 to 4", "unit": "min"}, {"measurement": "Fish in which anal fin continued undulating throughout the 5-min exposure", "setting": "[2]; 45 μL/L eugenol", "value": "1 out of 8"}, {"measurement": "Time after which body movements ceased (mean)", "setting": "[2]; 45 μL/L eugenol, 8 fish", "value": 1.4, "unit": "min"}, {"measurement": "Time after which body movements ceased (range)", "setting": "[2]; 45 μL/L eugenol, 8 fish", "value": "1 to 2", "unit": "min"}, {"measurement": "Time after which anal fin ceased undulating", "setting": "[2]; 45 μL/L eugenol, the 7 fish in which it ceased", "value": "1 to 3", "unit": "min"}, {"measurement": "Time after which body movements ceased (each fish)", "setting": "[2]; 60 μL/L eugenol, 8 fish", "value": 1, "unit": "min"}, {"measurement": "octanol-water partition coefficient log kow", "setting": "[3]", "value": 2.49}, {"measurement": "Time to a similar stage of anesthesia", "setting": "zebrafish (Danio rerio)", "value": "≤ 1.5", "unit": "min"}, {"measurement": "Binding to voltage-gated sodium channels", "setting": "Nav 1.7", "value": "preferentially binds to such channels in the inactivated state"}, {"measurement": "Effect on GABAA-receptor response", "setting": "GABAA receptors", "value": "potentiate GABAA-receptor response"}, {"measurement": "Effect on GABA-induced current", "setting": "[4]", "value": "inhibits GABAA current in a reversible, dose-dependent manner"}, {"measurement": "Effect on epileptiform field potentials and spreading depression", "setting": "[5]", "value": "reversible and dose-dependent suppression"}]}
